Data published in the NIST ThermoML archive (doi:10.1016/j.fluid.2015.09.010).

Assay: xn = mol fraction of the nth substance listed
Conditions: Gas, single sinker densimeter

F/C=C/C(F)(F)F [trans-1,3,3,3-tetrafluoropropene] + CCC
Conditions	mass density [kg/m3]
258.15 K, 100.61 kPa, x1 = 0.3426	3.2856
258.15 K, 196.38 kPa, x1 = 0.168	5.3883
258.15 K, 283.13 kPa, x1 = 0.168	7.9775
258.16 K, 100.07 kPa, x1 = 0.168	2.6751
258.16 K, 161.36 kPa, x1 = 0.3426	5.3604
258.18 K, 242.52 kPa, x1 = 0.3426	8.2589
263.19 K, 101.37 kPa, x1 = 0.3426	3.2412
263.19 K, 283.01 kPa, x1 = 0.3426	9.5248
263.2 K, 100.13 kPa, x1 = 0.168	2.6195
263.2 K, 200.66 kPa, x1 = 0.3426	6.5891
263.2 K, 209.39 kPa, x1 = 0.168	5.6353
263.2 K, 326.36 kPa, x1 = 0.168	9.0877
263.21 K, 228.28 kPa, x1 = 0.5076	8.8723
263.22 K, 100.69 kPa, x1 = 0.5076	3.7656
263.22 K, 168.02 kPa, x1 = 0.5076	6.4065
268.16 K, 332.61 kPa, x1 = 0.3431	11.1032
268.16 K, 332.62 kPa, x1 = 0.3431	11.1044
268.17 K, 101.25 kPa, x1 = 0.168	2.5987
268.17 K, 101.55 kPa, x1 = 0.679	4.2921
268.17 K, 164.37 kPa, x1 = 0.679	7.0737
268.17 K, 201.77 kPa, x1 = 0.3431	6.4883
268.17 K, 227.73 kPa, x1 = 0.679	9.9973
268.18 K, 202.12 kPa, x1 = 0.5076	7.6182
268.18 K, 248.05 kPa, x1 = 0.168	6.5968
268.18 K, 396.76 kPa, x1 = 0.168	11.0064
268.19 K, 101.5 kPa, x1 = 0.3431	3.1825
268.19 K, 104.3 kPa, x1 = 0.5076	3.83
268.2 K, 297.38 kPa, x1 = 0.5076	11.5325
273.16 K, 335.7 kPa, x1 = 0.168	8.9351
273.16 K, 451.06 kPa, x1 = 0.168	12.3973
273.17 K, 100.67 kPa, x1 = 0.3426	3.0918
273.17 K, 101.01 kPa, x1 = 0.168	2.541
273.17 K, 239.94 kPa, x1 = 0.3426	7.62
273.18 K, 102.27 kPa, x1 = 0.5076	3.6758
273.18 K, 200.45 kPa, x1 = 0.5076	7.3826
273.18 K, 209.57 kPa, x1 = 0.168	5.4023
273.18 K, 354.79 kPa, x1 = 0.5076	13.6621
273.18 K, 373.24 kPa, x1 = 0.3426	12.2939
273.18 K, 413.03 kPa, x1 = 0.3426	13.7671
273.2 K, 100.65 kPa, x1 = 0.679	4.1755
273.2 K, 206.18 kPa, x1 = 0.679	8.804
273.21 K, 292.51 kPa, x1 = 0.679	12.8266
278.16 K, 417.17 kPa, x1 = 0.3431	13.5784
278.17 K, 309.55 kPa, x1 = 0.3431	9.7917
278.18 K, 526.01 kPa, x1 = 0.168	14.3898
278.19 K, 99.65 kPa, x1 = 0.5076	3.5099
278.19 K, 100.62 kPa, x1 = 0.3431	3.0318
278.19 K, 101.41 kPa, x1 = 0.168	2.5025
278.19 K, 191.78 kPa, x1 = 0.5076	6.9037
278.19 K, 198.9 kPa, x1 = 0.3431	6.1248
278.19 K, 207 kPa, x1 = 0.168	5.2225
278.19 K, 297.09 kPa, x1 = 0.5076	10.9954
278.19 K, 309.62 kPa, x1 = 0.168	7.9983
278.19 K, 399.16 kPa, x1 = 0.5076	15.2118
278.19 K, 401.11 kPa, x1 = 0.168	10.6025
278.2 K, 223.87 kPa, x1 = 0.679	9.3941
278.21 K, 100.47 kPa, x1 = 0.679	4.0836
278.21 K, 100.48 kPa, x1 = 0.8949	4.7788
278.21 K, 170.26 kPa, x1 = 0.8949	8.2642
278.21 K, 223.89 kPa, x1 = 0.679	9.3939
278.21 K, 278.18 kPa, x1 = 0.8949	13.9927
278.22 K, 349.38 kPa, x1 = 0.679	15.2188
283.16 K, 205.37 kPa, x1 = 0.3426	6.1995
283.16 K, 338.25 kPa, x1 = 0.3426	10.53
283.17 K, 101.18 kPa, x1 = 0.3426	2.9879
283.17 K, 449.59 kPa, x1 = 0.3426	14.3925
283.18 K, 580.09 kPa, x1 = 0.3426	19.2575
283.19 K, 100.44 kPa, x1 = 0.168	2.4312
283.19 K, 198.03 kPa, x1 = 0.168	4.884
283.19 K, 220.83 kPa, x1 = 0.5076	7.8406
283.19 K, 312.57 kPa, x1 = 0.168	7.9025
283.19 K, 369.65 kPa, x1 = 0.5076	13.6268
283.19 K, 411.95 kPa, x1 = 0.168	10.6601
283.19 K, 498.32 kPa, x1 = 0.5076	19.0511
283.19 K, 515.38 kPa, x1 = 0.168	13.6875
283.19 K, 612.31 kPa, x1 = 0.168	16.7013
283.2 K, 100.73 kPa, x1 = 0.679	4.0148
283.2 K, 101.73 kPa, x1 = 0.5076	3.5184
283.2 K, 202.42 kPa, x1 = 0.679	8.2655
283.2 K, 307.97 kPa, x1 = 0.679	12.9389
283.21 K, 409.61 kPa, x1 = 0.679	17.7339
283.23 K, 209.78 kPa, x1 = 0.8949	10.0762
283.23 K, 328.84 kPa, x1 = 0.8949	16.4078
283.24 K, 102.25 kPa, x1 = 0.8949	4.7652
288.24 K, 101.08 kPa, x1 = 0.3426	2.9277
288.24 K, 229.6 kPa, x1 = 0.3426	6.8193
288.25 K, 344.87 kPa, x1 = 0.3426	10.4999
288.25 K, 452.7 kPa, x1 = 0.3426	14.1363
288.25 K, 583.57 kPa, x1 = 0.3426	18.8469
288.25 K, 689.73 kPa, x1 = 0.3426	22.9563
288.26 K, 595.72 kPa, x1 = 0.168	15.7412
288.26 K, 711.04 kPa, x1 = 0.168	19.385
288.27 K, 213.38 kPa, x1 = 0.168	5.1751
288.27 K, 334.82 kPa, x1 = 0.168	8.3244
288.27 K, 445.46 kPa, x1 = 0.168	11.3478
288.28 K, 101.56 kPa, x1 = 0.168	2.4124
288.29 K, 101.07 kPa, x1 = 0.5076	3.4268
288.29 K, 220.99 kPa, x1 = 0.5076	7.6809
288.29 K, 444.05 kPa, x1 = 0.5076	16.2865
288.29 K, 578.73 kPa, x1 = 0.5076	22.0366
288.3 K, 101.4 kPa, x1 = 0.679	3.9663
288.3 K, 227.2 kPa, x1 = 0.679	9.1436
288.3 K, 333.95 kPa, x1 = 0.5076	11.9154
288.31 K, 348.56 kPa, x1 = 0.679	14.4714
288.31 K, 484.09 kPa, x1 = 0.679	20.8941
288.32 K, 385.31 kPa, x1 = 0.8949	19.104
288.34 K, 101.12 kPa, x1 = 0.8949	4.6234
288.34 K, 236.83 kPa, x1 = 0.8949	11.2187
293.25 K, 588.13 kPa, x1 = 0.3426	18.534
293.25 K, 709.61 kPa, x1 = 0.3426	23.0845
293.26 K, 208.73 kPa, x1 = 0.3426	6.0545
293.26 K, 452.62 kPa, x1 = 0.3426	13.8135
293.27 K, 101.3 kPa, x1 = 0.3426	2.8816
293.27 K, 329.2 kPa, x1 = 0.3426	9.782
293.28 K, 208.37 kPa, x1 = 0.5076	7.0836
293.28 K, 290.55 kPa, x1 = 0.168	7.0037
293.28 K, 407.44 kPa, x1 = 0.168	10.0558
293.29 K, 98.9 kPa, x1 = 0.5076	3.2914
293.29 K, 100.13 kPa, x1 = 0.168	2.3324
293.29 K, 198.29 kPa, x1 = 0.168	4.6983
293.29 K, 317.13 kPa, x1 = 0.5076	11.031
293.29 K, 429.96 kPa, x1 = 0.5076	15.3484
293.29 K, 515.52 kPa, x1 = 0.168	13.0247
293.29 K, 530.45 kPa, x1 = 0.5076	19.4174
293.29 K, 612.66 kPa, x1 = 0.168	15.8319
293.29 K, 715.58 kPa, x1 = 0.168	18.9724
293.29 K, 825.52 kPa, x1 = 0.168	22.5539
293.3 K, 210.11 kPa, x1 = 0.679	8.2494
293.3 K, 641.29 kPa, x1 = 0.5076	24.1912
293.31 K, 101.19 kPa, x1 = 0.679	3.8833
293.31 K, 324.6 kPa, x1 = 0.679	13.0914
293.32 K, 432.86 kPa, x1 = 0.679	17.9448
293.32 K, 546.41 kPa, x1 = 0.679	23.3906
293.34 K, 454.67 kPa, x1 = 0.8949	22.4737
293.35 K, 100.25 kPa, x1 = 0.8949	4.4951
293.35 K, 226.08 kPa, x1 = 0.8949	10.452
293.35 K, 345.6 kPa, x1 = 0.8949	16.5159
